Laboratory results reported in patent US5859067A, “Use of natural products and related synthetic compounds for the treatment of cardiovascular disease” (priority 1993, dated 1999).
Values joined by “and” are separate entries in the source; they are usually repeats but may differ in a detail not shown here. Identical values can stand only once. Like-named read-outs stand apart in the source and are kept apart here.

Key:
[1] = tested on: brine shrimp (Artemia salina Leach); assay: Brine shrimp toxicity bioassay; type: in vivo; conditions: for LC50: Artemia salina, read-out: LC50 brine shrimp
Method: There are many applications of the assay including analysis of toxic substances, anaesthetics, morphine-like substances and cocarcinogenicity of phorbol esters.
6 (K Hostettman, ed.), Academ Press, London, 1-32. DMSO solutions of the substances to be tested were added directly to the vials containing the brine shrimp. As the concentration of DMSO that we wished to use was higher than the recommended 1% v/v testing of the toxicity of the DMSO was therefore necessary.
Brine shrimp toxicity was assayed, except for some minor modifications, according to the method of McLaughlin et al as reported in Brine Shrimp: A convenient general bioassay for active plant constituents, B N Meyer, N R Ferrigni, J E Putman, L B Jacobsen, D E Nhols and J L McLaughlin. […] J L McLaughlin. […] 6 (K Hostettman, ed.), Academ Press, London, 1-32. Ten shrimp were added transferred to each of the vials and the volume adjusted to 4.9 mL. Each dose was performed in triplicate, including the control. In quick succession, the appropriate volume of additional DMSO for each dose, required to achieve a final concentration of 2%, was added before the appropriate volume of test solution. The vials were gently mixed and the time noted. After 24 hours, the number of survivors were counted and % mortality was determined.
The LC50 values were expressed in both μM and μg/mL.

[2] = molecular target: T1, human erythrocyte plasma membrane Ca^2+ -ATPase (Homo sapiens, UniProt P23634); assay: Ca^2+ -ATPase assay (microplate method), absence (-CaM) and presence (+CaM) of calmodulin (Table 1A); type: biochemical
T1 construct: Calmodulin-depleted erythrocyte membranes were prepared by continuous filtration through a hollow fibre; tissue New South Wales Red Cross Transfusion Service, Sydney; host or cells: human packed red blood cells (calmodulin-depleted erythrocyte membranes)
Method: Natural and synthetic compounds of formula (I) were tested for their ability to influence human erythrocyte plasma membrane Ca^2+ -ATPase. The enzyme Ca^2+ -ATPase in the human red blood cell plasma membrane has previously been studied and its stimulation by calmodulin and activation by lipids and proteolysis and its primary structure have been published (see Carafoli E (1991) Calcium pump of the plasma membrane, Physiological Reviews 71, 129-153.
(§1) Calmodulin-depleted erythrocyte membranes were prepared by continuous filtration through a hollow fibre, Ashahi plasma separator as described by W S Price, B D Roufogalis, P W Kuchel (1989), A simple and inexpensive method for preparing erythrocyte membranes by filtration through a hollow-filter system, Anal. Biochem., 179, 190-193. Packed cells were obtained from the New South Wales Red Cross Transfusion Service, Sydney. The whole preparation was carried out at 4° C. 1 unit of packed red cells was washed 3 times with isotonic buffer, containing 130 mM KCl, 20 mM Tris-HCl (pH 7.4), and the cells were collected by centrifugation at 4,000 RPM. The cells were haemolysed by the buffer containing 1 mM EDTA, 10 mM Tris-Hcl (pH 7.4), 0.5 mM PMSF (phenylmethyl sulfonyl fluoride). The haemolyzate mixture was passed through the hollow fibre system until the membrane appeared white, and then washed with 10 mM potassium Hepes (pH 7.4). The membranes were collected by centrifugation at 10,000 RPM for 20 min, the membranes were resuspended in storage buffer containing 130 mM KCl, 2 mM dithiothreitol, 0.5 mM MgCl2, 20 mM potassium-Hepes (pH 7.5). The membranes with protein concentration of 1.5-5.4 mg/ml were stored at -80° C. until required.
Erythrocyte membranes were incubated at 37° C. for one hour in a total volume of 60 μl of 65 mM KCl, 50 mM HEPES (pH=7.4), 5 mM MgCl2, 50 μM CaCl2, 0.1 mM EGTA and in absence and presence of calmodulin (0.3 μM). Test compounds were dissolved in dimethyl sulfoxide DMSO and 2 μl was added to the assay mixture prior the addition of ATP. The final concentration of DMSO in the assay mixture was 3%. The reaction was started by adding 2 mM ATP (pH=7.4). After 1 hour of incubation, colouring agent (180 μl) was added and incubated at 37° C. for 1/2 hrs. The phosphate liberated to the assay medium was determined spectrometrically using a microplate reader at 750 nm. The activity of the Mg^2+ -ATPase (assayed in the absence of added CaCl2) was subtracted from the total activity assayed in the presence of Ca^2+.

[3] = molecular target: T1, human erythrocyte plasma membrane Ca^2+ -ATPase; assay: Ca^2+ -ATPase assay (erythrocyte membranes; Table 1); type: biochemical; conditions: for inhibition at 100 µM: read-out: INHIBITION OF Ca^2+ -ATPase PERCENT (%)
Method: Natural and synthetic compounds of formula (I) were tested for their ability to influence human erythrocyte plasma membrane Ca^2+ -ATPase.
as §1, with “Packed” for “Calmodulin-depleted erythrocyte membranes were prepared by continuous filtration through a hollow fibre, Ashahi plasma separator as described by W S Price, B D Roufogalis, P W Kuchel (1989), A simple and inexpensive method for preparing erythrocyte membranes by filtration through a hollow-filter system, Anal. Biochem., 179, 190-193. Packed”
Erythrocyte membranes (0.071-0.098 mg/ml) were incubated at 37° C. for one hour in a total volume of 0.4 ml of 65 mM KCl, 20 mM potassium-Hepes, 5 mM MgCl2, 50 μM CaCl2, 0.1 μm calmodulin, 0.1 mM EGTA. The reaction was started by adding 2 mM ATP(pH 7.4). […] The activity of the Mg^2+ -ATPase (assayed in the absence of added CaCl2) was subtracted from the total activity assayed in the presence of Ca^2+. […] A concentrated solution of the test substances was added to the reaction medium before adding ATP.

[4] = absence of calmodulin, read-out: IC50 (-CaM)
[5] = presence of calmodulin (0.3 μM), read-out: IC50 (+CaM)
[6] = IC50 (+CaM), presence of calmodulin (0.3 μM)
[7] = IC50 (-CaM), absence of calmodulin
[8] = read-out: INHIBITION OF Ca^2+ -ATPase IC50

T1 sequence (P23634 1-1205 isoform P23634-6): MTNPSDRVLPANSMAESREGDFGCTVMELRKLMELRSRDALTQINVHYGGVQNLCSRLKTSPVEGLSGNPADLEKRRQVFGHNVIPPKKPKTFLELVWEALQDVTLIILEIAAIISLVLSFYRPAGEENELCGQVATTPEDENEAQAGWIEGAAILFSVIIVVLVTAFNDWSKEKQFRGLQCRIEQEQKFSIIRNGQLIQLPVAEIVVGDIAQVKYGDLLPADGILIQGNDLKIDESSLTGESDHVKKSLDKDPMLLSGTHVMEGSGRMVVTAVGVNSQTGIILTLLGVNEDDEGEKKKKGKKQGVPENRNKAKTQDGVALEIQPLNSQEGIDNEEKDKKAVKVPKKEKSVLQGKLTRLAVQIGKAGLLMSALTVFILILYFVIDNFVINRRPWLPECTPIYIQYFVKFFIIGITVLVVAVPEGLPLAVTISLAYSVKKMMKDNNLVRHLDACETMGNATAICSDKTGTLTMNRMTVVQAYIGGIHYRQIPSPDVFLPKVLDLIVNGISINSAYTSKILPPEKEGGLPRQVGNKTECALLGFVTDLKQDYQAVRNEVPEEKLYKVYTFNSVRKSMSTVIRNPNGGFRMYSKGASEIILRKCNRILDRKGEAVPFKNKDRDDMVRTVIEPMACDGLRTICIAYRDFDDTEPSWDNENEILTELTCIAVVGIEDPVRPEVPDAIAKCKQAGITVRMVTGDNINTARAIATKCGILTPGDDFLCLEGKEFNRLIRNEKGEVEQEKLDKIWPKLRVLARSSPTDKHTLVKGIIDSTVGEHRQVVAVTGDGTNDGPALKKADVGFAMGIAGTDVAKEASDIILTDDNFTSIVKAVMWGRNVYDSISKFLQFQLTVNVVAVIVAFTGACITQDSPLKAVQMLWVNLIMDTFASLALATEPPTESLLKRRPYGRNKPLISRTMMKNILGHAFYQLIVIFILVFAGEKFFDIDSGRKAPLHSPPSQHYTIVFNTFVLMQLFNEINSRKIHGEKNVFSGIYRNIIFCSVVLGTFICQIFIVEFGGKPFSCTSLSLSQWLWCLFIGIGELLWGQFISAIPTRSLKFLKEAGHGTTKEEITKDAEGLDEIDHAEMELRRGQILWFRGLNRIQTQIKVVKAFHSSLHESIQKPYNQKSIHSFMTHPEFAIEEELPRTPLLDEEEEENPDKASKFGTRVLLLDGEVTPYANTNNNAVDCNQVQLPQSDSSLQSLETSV
T1 sequence (P35613 140-385 partner limits assumed): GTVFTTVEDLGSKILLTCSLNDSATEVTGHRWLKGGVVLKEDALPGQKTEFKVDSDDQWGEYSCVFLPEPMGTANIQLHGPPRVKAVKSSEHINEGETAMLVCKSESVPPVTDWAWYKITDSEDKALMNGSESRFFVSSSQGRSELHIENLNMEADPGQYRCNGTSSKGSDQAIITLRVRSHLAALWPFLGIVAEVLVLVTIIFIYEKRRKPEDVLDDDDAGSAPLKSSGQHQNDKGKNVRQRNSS

Molecule	LC50 ([1]; 24 hours)	IC50 [2, 4]	IC50 [2, 5]	also measured
Cc1cc(CCCCCCCCCCc2ccc(O)c(C)c2)ccc1O [1,10-bis(4-hydroxy-3-methylphenyl)decane]	4.2 µM and 1.5 µg/mL	100 µM	94 µM	
Oc1ccc(CCCCCCCCCCc2ccc(O)cc2O)c(O)c1 [1,10-bis(2,4-dihydroxyphenyl)decane]	37 µM and 13 µg/mL	10 µM	16 µM	toxicity to brine shrimp (in words) ([1]; 24 hours): relatively low toxicity; Ca^2+ -ATPase inhibitory activity (in words) [2]: most potent inhibitors of plasma Ca^2+ -ATPase among the synthesised substances
C=C(C)C(CC=C(C)C)Cc1c(O)cc(O)c2c1OC(c1ccccc1O)CC2=O (stereo not drawn) [5,7,6'-trihydroxy-8-lavandulylflavanone]		26.5 µM		
2-bromo-6-nonylresorcinol		400 µM	400 µM	
CCCCCCCCCc1cc([N+](=O)[O-])ccc1O [4-nitro-6-nonylphenol]				IC50 [2, 6]: 70 µM; IC50 [2, 7]: 80 µM
Cc1ccc(O)c(CCCCCCCCCCc2cc(C)ccc2O)c1 [1,10-bis(2-hydroxy-5-methylphenyl)decane]		22 µM	20.5 µM	
Cc1ccc(CCCCCCCCCCc2ccc(C)cc2O)c(O)c1 [1,10-bis(2-hydroxy-4-methylphenyl)decane]	14 µM and 5 µg/mL	29 µM	29 µM	toxicity to brine shrimp (in words) ([1]; 24 hours): reduced toxicity
Oc1ccccc1CCCCCCCCCc1ccccc1O [1,9-bis(2-hydroxyphenyl)nonane]		13.5 µM	14 µM	
CCCCCCCCCc1cc(Br)ccc1O [4-bromo-6-nonylphenol]				IC50 [2, 6]: 55 µM; IC50 [2, 7]: 52 µM
Cc1ccc(CCCCCCCCCCc2ccc(C)c(O)c2)cc1O [1,10-bis(3-hydroxy-4-methylphenyl)decane]	11 µM and 3.9 µg/mL	51 µM	48 µM	
Oc1ccc2ccccc2c1CCCCCCCCCCc1c(O)ccc2ccccc12 [1,10-bis(2-hydroxy-1-naphthyl)decane]	> 25 µM and > 11 µg/mL	92 µM	90 µM	
Cc1c(O)ccc(CCCCCCCCCCc2ccc(O)c(C)c2O)c1O [1,10-bis(2,4-dihydroxy-3-methylphenyl)decane]	> 25 µM and > 9.7 µg/mL	100 µM	100 µM	
Oc1ccc(CCCCCCCCCCCCc2ccc(O)cc2O)c(O)c1 [1,12-bis(2,4-dihydroxyphenyl)dodecane]	14 µM and 5.4 µg/mL	12 µM	20 µM	
4-bromo-6-nonylresorcinol		400 µM	400 µM	
C=C(C)C(CC=C(C)C)Cc1c(OC)cc(O)c2c1OC(c1c(O)cccc1O)CC2=O (stereo not drawn) [5,2',6'-trihydroxy-8-lavandulyl-7-methoxyflavanone]		45.3 µM		
CCCCCCCCCc1cc(C)ccc1O [4-methyl-6-nonylphenol]				IC50 [2, 6]: 75 µM; IC50 [2, 7]: 80 µM
C=C(C)C(CC=C(C)C)Cc1c(O)cc(O)c2c1OC(c1c(O)cccc1O)CC2=O (stereo not drawn) [5,7,2',6'-tetrahydroxy-8-lavandulylflavanone]	> 100 µM and > 42 µg/mL	20 µM		

Molecule	LC50 ([1]; 24 hours)	IC50 [2, 4]	IC50 [2, 5]	also measured
Cc1cccc(CCCCCCCCCCc2cccc(C)c2O)c1O [1,10-bis(2-hydroxy-3-methylphenyl)decane]	5.8 µM and 2.1 µg/mL	50 µM	55 µM	
CCCCCCCCCc1ccc(C)cc1O [3-methyl-6-nonylphenol]				IC50 [2, 6]: 60 µM; IC50 [2, 7]: 52 µM
CCCCCCCCC(=O)c1ccccc1O [2-nonanoylphenol]	630 nM and 0.15 µg/mL			inhibition at 100 µM ([3]; at 100 μM): 32%; IC50 [3, 8]: > 100 µM
CCCCCCCCCc1cc([N+](=O)[O-])cc(Br)c1O [2-bromo-4-nitro-6-nonylphenol]				IC50 [2, 6]: 70 µM
Oc1ccc(CCCCCCCCCCCCc2ccccc2O)cc1 [1-(2-hydroxyphenyl)-12-(4-hydroxyphenyl)dodecane]	54 nM and 0.019 µg/mL			inhibition at 100 µM ([3]; at 100 μM): 99%; IC50 [3, 8]: 18.8 µM
CCCCCCCCCCc1cc(O)cc(O)c1 [5-decylresorcinol]	54 µM and 15 µg/mL			inhibition at 100 µM ([3]; at 100 μM): 30%; IC50 [3, 8]: 135 µM
Oc1ccccc1C1CCCCC1 [2-cyclohexylphenol]	> 25 µM and > 4.4 µg/mL			IC50 [3]: 186 µM; inhibition at 100 µM [3]: 28%
CCCCCCCCCc1cc(Br)cc([N+](=O)[O-])c1O [4-bromo-2-nitro-6-nonylphenol]				IC50 [2, 6]: 65.5 µM
CC(C)=CCC/C(C)=C/CC/C(C)=C/Cc1c(O)cc(C)cc1O [grifolin, 2-E,E-farnesyl-5-methyl-resorcinol]	2.3 µM and 0.75 µg/mL			inhibition at 100 µM ([3]; at 100 μM): 100%; IC50 [3, 8]: 22.5 µM
CCCCCCCCCCc1ccc(O)cc1 [4-decylphenol]				LC50 ([1]; 24 h): 270 nM and 0.064 µg/mL; IC50 [3]: 170 µM; inhibition at 100 µM [3]: 24%
Oc1ccc(C2CCCCC2)cc1 [4-cyclohexylphenol]				LC50 ([1]; 24 h): > 25 µM and > 4.4 µg/mL; IC50 [3]: 271 µM; inhibition at 100 µM ([3]; at 100 μM): 16%
CCCCCCCCCC(c1ccccc1O)c1ccccc1O [1,1-bis(2-hydroxyphenyl)decane]	14 µM and 4.6 µg/mL	74 µM	68 µM	
Oc1ccc(CCCCCCCCCCCc2ccc(O)cc2O)c(O)c1 [1,11-bis(2,4-dihydroxyphenyl)undecane]	> 25 µM and > 9.3 µg/mL	25 µM	21.7 µM	
CCCCCCCCCc1ccc(O)cc1O [4-nonylresorcinol]	10 µM and 2.4 µg/mL	125 µM		
CCCCCCc1ccc(O)cc1O [4-hexylresorcinol, reference compound]	62 µM and 12 µg/mL			inhibition at 100 µM ([3]; at 100 μM): 17%; IC50 [3, 8]: 259 µM
Oc1ccc(CCCCCCCCc2ccc(O)cc2O)c(O)c1 [1,8-bis(2,4-dihydroxyphenyl)octane]	74 µM and 24 µg/mL	50 µM	48 µM	
